# Target: human DP2 (Homo sapiens (Human), UniProt Q9Y5Y4)
# Test: DP-2 Binding Inhibition Assay (3H-PGD2 binding to membranes of K562 cells expressing DP2)
# Details: EC50 (nM) 0.1% BSA, inhibition of 3H-PGD2 binding, 0.1% BSA
# Outline: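 Radioligand filtration binding: ³H-PGD2 displacement from DP2-expressing K562 cell membranes, 60 min, room temperature, pH 7.4, under 0.1% BSA, 1% HSA or 4% HSA.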
# Sequence of human DP2 (Q9Y5Y4 whole entry): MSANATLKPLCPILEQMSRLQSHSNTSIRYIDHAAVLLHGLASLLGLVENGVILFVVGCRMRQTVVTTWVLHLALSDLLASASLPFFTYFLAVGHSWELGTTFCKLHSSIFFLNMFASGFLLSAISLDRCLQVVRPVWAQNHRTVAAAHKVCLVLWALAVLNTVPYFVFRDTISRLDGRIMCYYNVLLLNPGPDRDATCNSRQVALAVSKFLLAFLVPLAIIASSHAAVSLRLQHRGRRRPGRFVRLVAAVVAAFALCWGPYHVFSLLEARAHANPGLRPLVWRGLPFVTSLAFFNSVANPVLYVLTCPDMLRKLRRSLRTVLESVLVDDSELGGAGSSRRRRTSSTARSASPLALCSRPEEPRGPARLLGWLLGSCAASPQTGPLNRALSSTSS
row,EC50 [nM],SMILES
1,11.1,"O=C(NCCc1ccc(Cl)cc1O)c1ccc(Oc2cc3c(cc2Cl)C(C(=O)O)CCO3)cc1 (stereo not shown) [Example 233, 6-Chloro-7-(4-(4-chloro-2-hydroxyphenethylcarbamoyl)phenoxy)chroman-4-carboxylic acid]"

# Same assay, conditions: read-out: EC50 (Nm) 1% HSA; inhibition of 3H-PGD2 binding, 1% HSA
row,EC50 [nM],SMILES
1,144,"O=C(NCCc1ccc(Cl)cc1)c1ccc(Oc2cc(Cl)c3c(c2)OCCC3C(=O)O)cc1 (stereo not shown) [Example 218, 5-chloro-7-(4-(4-chlorophenethylcarbamoyl)phenoxy)chroman-4-carboxylic acid]"
2,1040,"N#Cc1cc2c(cc1Oc1ccc(C(=O)NCC3(c4ccc(Cl)cc4)CC3)cc1)OCCC2C(=O)O (stereo not shown) [Example 219, 7-(4-((1-(4-chlorophenyl)cyclopropyl)methylcarbamoyl)phenoxy)-6-cyanochroman-4-carboxylic acid]"

# Same assay, conditions: read-out: EC50 (nM) 4% HSA; inhibition of 3H-PGD2 binding, 4% HSA
row,SMILES,EC50 [nM]
1,"O=C(NCCc1cccn1-c1ccc(C(F)(F)F)cc1)c1ccc(Oc2cc3c(cc2Cl)C(C(=O)O)CCO3)cc1 (stereo not shown) [Example 194, sodium 6-chloro-7-(4-(2-(1-(4-(trifluoromethyl)phenyl)-1H-pyrrol-2-yl)ethylcarbamoyl)phenoxy)chroman-4-carboxylate]",3010
2,"O=C(NCC(F)(F)c1ccc(Cl)cc1)c1ccc(Oc2cc3c(cc2Cl)C(C(=O)O)CCO3)cc1 (stereo not shown) [Example 195, sodium 6-chloro-7-(4-(2-(4-chlorophenyl)-2,2-difluoroethylcarbamoyl)phenoxy)chroman-4-carboxylate]",1150
3,"CCc1ccccc1CCNC(=O)c1ccc(Oc2cc3c(cc2Cl)C(C(=O)O)CCO3)cc1 (stereo not shown) [Example 196, sodium 6-chloro-7-(4-(2-ethylphenethylcarbamoyl)phenoxy)chroman-4-carboxylate]",269
4,"O=C(NCC(O)c1ccc(Cl)cc1Cl)c1ccc(Oc2cc3c(cc2Cl)C(C(=O)O)CCO3)cc1 (stereo not shown) [Example 197, sodium 6-chloro-7-(4-(2-(2,4-dichlorophenyl)-2-hydroxyethylcarbamoyl)phenoxy)chroman-4-carboxylate]",689
5,"O=C(NCCc1ccc(Cl)cc1OCC1CC1)c1ccc(Oc2cc3c(cc2Cl)C(C(=O)O)CCO3)cc1 (stereo not shown) [Example 199, sodium 6-chloro-7-(4-(4-chloro-2-(cyclopropyl-methoxy)phenethylcarbamoyl)phenoxy)chroman-4-carboxylate]",111
6,"CC(C)Oc1cc(Cl)ccc1CCNC(=O)c1ccc(Oc2cc3c(cc2Cl)C(C(=O)O)CCO3)cc1 (stereo not shown) [Example 202, sodium 6-chloro-7-(4-(4-chloro-2-isopropoxy-phenethylcarbamoyl)phenoxy)chroman-4-carboxylate]",71.6
7,"O=C(NCCc1cc(F)ccc1Oc1ccc(Cl)cc1Cl)c1ccc(Oc2cc3c(cc2Cl)C(C(=O)O)CCO3)cc1 (stereo not shown) [Example 213, sodium 6-chloro-7-(4-(2-(2,4-dichlorophenoxy)-5-fluorophenethylcarbamoyl)phenoxy)chroman-4-carboxylate]",45.1
8,"O=C(NCCOc1ccccc1)c1ccc(Oc2cc3c(cc2Cl)C(C(=O)O)CCO3)cc1 (stereo not shown) [Example 220, 6-chloro-7-(4-(2-phenoxyethylcarbamoyl)phenoxy)chroman-4-carboxylic acid]",> 2000
9,"O=C(NCCc1ccc(C(F)(F)F)cc1C(F)(F)F)c1ccc(Oc2cc3c(cc2Cl)C(C(=O)O)CCO3)cc1 (stereo not shown) [Example 221, 7-(4-(2,4-bis(trifluoromethyl)phenethylcarbamoyl)phenoxy)-6-chlorochroman-4-carboxylic acid]",45
10,"O=C(NCCc1ccc(OC(F)F)cc1)c1ccc(Oc2cc3c(cc2Cl)C(C(=O)O)CCO3)cc1 (stereo not shown) [Example 223, 6-chloro-7-(4-(4-(difluoromethoxy)phenethylcarbamoyl)phenoxy) chroman-4-carboxylic acid]",209
11,"CCOc1ccc(CCNC(=O)c2ccc(Oc3cc4c(cc3Cl)C(C(=O)O)CCO4)cc2)c(OCC)c1 (stereo not shown) [Example 225, 6-chloro-7-(4-(2,4-diethoxyphenethylcarbamoyl)phenoxy)chroman-4-carboxylic acid]",56
12,"O=C(NCC1CCc2cc(Cl)ccc21)c1ccc(Oc2cc3c(cc2Cl)C(C(=O)O)CCO3)cc1 (stereo not shown) [Example 231, 6-chloro-7-(4-((5-chloro-2,3-dihydro-1H-inden-1-yl)methylcarbamoyl)phenoxy) chroman-4-carboxylic acid]",225
13,"O=C(NCCc1ccc(C(F)(F)F)cc1C1CC1)c1ccc(Oc2cc3c(cc2Cl)C(C(=O)O)CCO3)cc1 (stereo not shown) [Example 232, 6-chloro-7-(4-(2-cyclopropyl-4-(trifluoromethyl)phenethylcarbamoyl)phenoxy) chroman-4-carboxylic acid]",46.5

# Results, then the compound that gave them:
row,EC50 [nM],SMILES
1,138,"CCOc1cc(Cl)c(Cl)cc1CCNC(=O)c1ccc(Oc2cc3c(cc2Cl)C(C(=O)O)CCO3)cc1 (stereo not shown) [Example 201, sodium 6-chloro-7-(4-(4,5-dichloro-2-ethoxyphenethylcarbamoyl)phenoxy)chroman-4-carboxylate]"
2,81.5,"O=C(NCCc1cc(F)ccc1Oc1ccc(Cl)c(Cl)c1)c1ccc(Oc2cc3c(cc2Cl)C(C(=O)O)CCO3)cc1 (stereo not shown) [Example 212, sodium 6-chloro-7-(4-(2-(3,4-dichlorophenoxy)-5-fluorophenethylcarbamoyl)phenoxy)chroman-4-carboxylate]"
3,118,"COc1cc(OC)c(CCNC(=O)c2ccc(Oc3cc4c(cc3Cl)C(C(=O)O)CCO4)cc2)c(OC)c1 (stereo not shown) [Example 222, 6-chloro-7-(4-(2,4,6-trimethoxyphenethylcarbamoyl)phenoxy)chroman-4-carboxylic acid]"
4,373,"COc1cc(Cl)c(CCNC(=O)c2ccc(Oc3cc4c(cc3Cl)C(C(=O)O)CCO4)cc2)c(Cl)c1 (stereo not shown) [Example 224, 6-chloro-7-(4-(2,6-dichloro-4-methoxyphenethylcarbamoyl)phenoxy)chroman-4-carboxylic acid]"
5,88.5,"COc1cc(Cl)c(CCNC(=O)c2ccc(Oc3cc4c(cc3Cl)C(C(=O)O)CCO4)cc2)c(OC)c1 (stereo not shown) [Example 226, 6-chloro-7-(4-(2-chloro-4,6-dimethoxyphenethylcarbamoyl)phenoxy)chroman-4-carboxylic acid]"
6,74.5,"CCOc1ccc(CCNC(=O)c2ccc(Oc3cc4c(cc3Cl)C(C(=O)O)CCO4)cc2)c(OC)c1 (stereo not shown) [Example 227, 6-chloro-7-(4-(4-ethoxy-2-methoxyphenethylcarbamoyl)phenoxy)chroman-4-carboxylic acid]"
7,88.9,"CCOc1cc(OC)ccc1CCNC(=O)c1ccc(Oc2cc3c(cc2Cl)C(C(=O)O)CCO3)cc1 (stereo not shown) [Example 228, 6-chloro-7-(4-(2-ethoxy-4-methoxyphenethylcarbamoyl)phenoxy)chroman-4-carboxylic acid]"
8,67.5,"CSc1cc(Cl)ccc1CCNC(=O)c1ccc(Oc2cc3c(cc2Cl)C(C(=O)O)CCO3)cc1 (stereo not shown) [Example 229, 6-chloro-7-(4-(4-chloro-2-(methylthio)phenethylcarbamoyl)phenoxy)chroman-4-carboxylic acid]"
9,243,"O=C(NCCc1ccc(Cl)cc1F)c1ccc(Oc2cc3c(cc2Cl)C(C(=O)O)CCO3)cc1 (stereo not shown) [Example 230, 6-chloro-7-(4-(4-chloro-2-fluorophenethylcarbamoyl)phenoxy)chroman-4-carboxylic acid]"

# — patent US9556139B2, “6-substituted phenoxychroman carboxylic acid derivatives” (Array BioPharma Inc., priority 2008, dated 2017)
